Experimental findings from US8030300B2, “Ligands for nicotinic acetylcholine receptors, and methods of making and using them” (priority 2003, dated 2011) are described below.

Assay in all cases: biochemical
Holding throughout (assay type): binding

Assay [1] addresses T1, receptors in rat forebrain (mainly α4β2) (Rattus norvegicus, UniProt P09483+P12390).
T1 construct: from tissue; host or cells: rat forebrain homogenate
The source says: (§1) In order to assess the steric and hydropathic effects of the C-5 substituents of the pyridine on the binding affinity and subtype-selectivity at neuronal nicotinic acetylcholine receptors. […] The binding affinity ratios for a ligand, calculated from its affinities at an α subunit paired with either the β2 osubunit or the β4 subunit, represents a measure of the selectivity of that ligand with regard to the β subunits.
In Vitro Inhibition of ^3H-Epibatidin Binding
The high affinity binding site for ^3H-epibatidin is most certainly binding to the α4β2 subtype of nicotinic receptors. The identity of the low affinity site is still believed to be unknown.
Tissue preparation: Preparations may be performed at 0-4° C. unless otherwise indicated. […] The tissue suspension may then be centrifuged at 27,000×g for 10 min. The supernatant is then discarded and the pellet may then be washed three times by centrifugation at 27,000×g for 10 min in 20 mL fresh buffer, and the final pellet may be resuspended in fresh buffer (400 mL per g of original tissue) and used for binding assays.
Assay: Aliquots of 2.0 mL homogenate may be added to 0.100 mL of test solution and 0.100 mL of ^3H-epibatidin (0.3 nM, final concentration), mixed and incubated for 60 min at room temperature. […] The amount of radioactivity on the filters may be determined by conventional liquid scintillation counting. Specific binding is total binding minus non-specific binding.

Assay [2] has as its target T2, α4β2 nAChR subtype (Rattus norvegicus, UniProt P09483+P12390).
T2 construct: expressed in transfected cells
Excerpt: as §1

Assay [3] concerns the target T3, α3β2 nAChR subtype (Rattus norvegicus, UniProt P04757+P12390).
T3 construct: expressed in transfected cells
Excerpt: as §1

Assay [4] has as its target T4, α2β2 nAChR subtype (Rattus norvegicus, UniProt P12389+P12390).
T4 construct: expressed in transfected cells
Excerpt: as §1

The target of assay [5] is T5, α3β4 nAChR subtype (Rattus norvegicus, UniProt P04757+P12392).
T5 construct: expressed in transfected cells
Excerpt: as §1

The target in assay [6] is T6, α4β4 nAChR subtype (Rattus norvegicus, UniProt P09483+P12392).
T6 construct: expressed in transfected cells
Excerpt: as §1

Assay [7] deals with T7, α2β4 nAChR subtype (Rattus norvegicus, UniProt P12389+P12392).
T7 construct: expressed in transfected cells
Excerpt: as §1

The mark [8] stands for this setting: Ki α4β2*, Table 5, *Rat forebrain, mainly α4β2.
The mark [9] stands for this setting: Ki α4β2, Table 5, rat nAChR subtypes.
Setting [10] is: Ki α3β2, Table 5, rat nAChR subtypes.
Setting [11] is: Ki α2β2, Table 5, rat nAChR subtypes.
Where [12] appears, read: Ki α3β4, Table 5, rat nAChR subtypes.
Setting [13] is: Ki α4β4, Table 5, rat nAChR subtypes.
Where [14] appears, read: Ki α2β4, Table 5, rat nAChR subtypes.

What is called Ki is the equilibrium dissociation constant of an inhibitor or competing ligand from its target.

Where two headings read alike, the source gives them in different places.

T3 sequence (P12390 25-500): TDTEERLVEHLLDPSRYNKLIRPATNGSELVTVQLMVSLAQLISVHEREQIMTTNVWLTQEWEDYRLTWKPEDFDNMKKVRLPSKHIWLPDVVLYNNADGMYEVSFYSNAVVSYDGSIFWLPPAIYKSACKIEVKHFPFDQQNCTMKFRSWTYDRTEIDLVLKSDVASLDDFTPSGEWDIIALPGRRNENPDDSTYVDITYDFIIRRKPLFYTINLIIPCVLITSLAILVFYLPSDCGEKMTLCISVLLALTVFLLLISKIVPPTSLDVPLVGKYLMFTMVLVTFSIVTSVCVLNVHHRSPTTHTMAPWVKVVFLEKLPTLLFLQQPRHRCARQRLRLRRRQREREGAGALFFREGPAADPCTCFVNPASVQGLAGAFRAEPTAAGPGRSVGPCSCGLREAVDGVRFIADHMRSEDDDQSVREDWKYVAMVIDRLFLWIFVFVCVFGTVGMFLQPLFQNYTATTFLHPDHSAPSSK
T3 sequence (P04757 26-499): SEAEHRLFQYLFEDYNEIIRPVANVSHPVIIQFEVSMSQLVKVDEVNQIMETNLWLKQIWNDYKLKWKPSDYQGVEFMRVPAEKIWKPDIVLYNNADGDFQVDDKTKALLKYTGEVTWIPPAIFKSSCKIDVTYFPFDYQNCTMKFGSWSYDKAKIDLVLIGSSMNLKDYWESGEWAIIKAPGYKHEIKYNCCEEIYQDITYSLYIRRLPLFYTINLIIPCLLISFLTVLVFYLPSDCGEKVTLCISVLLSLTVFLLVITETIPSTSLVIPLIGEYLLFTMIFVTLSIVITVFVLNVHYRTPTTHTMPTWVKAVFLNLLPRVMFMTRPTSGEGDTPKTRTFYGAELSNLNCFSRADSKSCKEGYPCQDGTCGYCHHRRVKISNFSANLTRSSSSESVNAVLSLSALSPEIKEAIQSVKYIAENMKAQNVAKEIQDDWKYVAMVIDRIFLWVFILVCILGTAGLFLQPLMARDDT
T2 sequence (P12390 25-500): as the sequence (P12390 25-500) above
T2 sequence (P09483 31-630): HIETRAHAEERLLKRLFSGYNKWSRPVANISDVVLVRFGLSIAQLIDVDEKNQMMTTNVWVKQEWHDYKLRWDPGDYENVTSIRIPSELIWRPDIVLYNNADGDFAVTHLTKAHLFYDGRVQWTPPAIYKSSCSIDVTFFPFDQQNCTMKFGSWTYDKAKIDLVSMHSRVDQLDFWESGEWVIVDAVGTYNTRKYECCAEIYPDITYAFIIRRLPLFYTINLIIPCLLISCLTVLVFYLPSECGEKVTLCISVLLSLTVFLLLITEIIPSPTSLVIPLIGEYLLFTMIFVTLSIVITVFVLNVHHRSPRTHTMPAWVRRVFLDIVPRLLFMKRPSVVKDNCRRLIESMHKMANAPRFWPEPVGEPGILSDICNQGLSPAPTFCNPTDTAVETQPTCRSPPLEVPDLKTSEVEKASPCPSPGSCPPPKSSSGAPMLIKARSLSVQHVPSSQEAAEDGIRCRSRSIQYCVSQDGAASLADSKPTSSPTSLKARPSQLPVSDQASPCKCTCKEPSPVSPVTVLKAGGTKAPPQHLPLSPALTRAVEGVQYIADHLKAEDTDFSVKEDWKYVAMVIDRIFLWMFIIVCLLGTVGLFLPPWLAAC
T4 sequence (P12390 25-500): as the sequence (P12390 25-500) above
T4 sequence (P12389 28-511): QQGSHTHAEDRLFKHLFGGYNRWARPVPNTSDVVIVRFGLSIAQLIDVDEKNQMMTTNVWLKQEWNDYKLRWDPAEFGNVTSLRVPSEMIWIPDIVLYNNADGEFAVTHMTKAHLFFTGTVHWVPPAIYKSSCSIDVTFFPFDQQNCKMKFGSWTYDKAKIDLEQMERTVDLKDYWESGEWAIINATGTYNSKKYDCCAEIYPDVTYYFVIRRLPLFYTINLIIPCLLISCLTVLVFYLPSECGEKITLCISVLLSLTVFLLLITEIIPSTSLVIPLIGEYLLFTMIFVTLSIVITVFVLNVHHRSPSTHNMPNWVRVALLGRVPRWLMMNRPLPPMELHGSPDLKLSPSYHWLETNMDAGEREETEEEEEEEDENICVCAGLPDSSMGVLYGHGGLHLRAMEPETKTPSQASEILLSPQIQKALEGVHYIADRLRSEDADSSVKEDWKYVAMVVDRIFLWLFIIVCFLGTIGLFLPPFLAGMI
T5 sequence (P04757 26-499): as the sequence (P04757 26-499) above
T5 sequence (P12392 21-495): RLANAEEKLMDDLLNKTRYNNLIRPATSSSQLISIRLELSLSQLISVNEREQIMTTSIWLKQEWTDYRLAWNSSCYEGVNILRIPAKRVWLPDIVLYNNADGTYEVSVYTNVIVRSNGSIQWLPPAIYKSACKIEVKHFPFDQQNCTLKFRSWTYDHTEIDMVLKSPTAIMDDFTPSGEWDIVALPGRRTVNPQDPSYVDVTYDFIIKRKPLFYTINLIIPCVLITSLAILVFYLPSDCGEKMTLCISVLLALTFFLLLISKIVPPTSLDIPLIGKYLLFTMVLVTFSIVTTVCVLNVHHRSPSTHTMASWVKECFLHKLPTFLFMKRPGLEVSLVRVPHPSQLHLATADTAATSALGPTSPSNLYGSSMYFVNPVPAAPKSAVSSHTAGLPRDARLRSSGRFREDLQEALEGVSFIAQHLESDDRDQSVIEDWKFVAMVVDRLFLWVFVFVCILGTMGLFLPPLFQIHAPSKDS
T7 sequence (P12389 28-511): as the sequence (P12389 28-511) above
T7 sequence (P12392 21-495): as the sequence (P12392 21-495) above
T1 sequence (P09483 31-630): as the sequence (P09483 31-630) above
T1 sequence (P12390 25-500): as the sequence (P12390 25-500) above
T6 sequence (P12392 21-495): as the sequence (P12392 21-495) above
T6 sequence (P09483 31-630): as the sequence (P09483 31-630) above

On to `CN1CCC[C@H]1COc1cncc(C#CCO)c1` [Ligand 14], for which the Ki in assay [1] (Ki Rat forebrain, Table 1, mean of 3 (1, 2: 3 to 6) independent measurements) was determined as 3.16 nM; in assay [2] (Ki α4β2, Table 1, mean of 3 (1, 2: 3 to 6) independent measurements), 0.954 nM; in assay [3] (Ki α3β2, Table 1, mean of 3 (1, 2: 3 to 6) independent measurements) it was 7.64 nM; in assay [4] (Ki α2β2, Table 1, mean of 3 (1, 2: 3 to 6) independent measurements), 2.43 nM; in assay [5] (Ki α3β4, Table 1, mean of 3 (1, 2: 3 to 6) independent measurements) it was 18200 nM; in assay [6] (Ki α4β4, Table 1, mean of 3 (1, 2: 3 to 6) independent measurements) it was 1690 nM. In addition, the Ki in assay [7] (Ki α2β4, Table 1, mean of 3 (1, 2: 3 to 6) independent measurements) amounted to 1880 nM.

Consider `OCCCCC#Cc1cncc(C2CC3CCC2N3)c1` (stereo not drawn) [Ligand 31, 2-exo-(5-(6-Hydroxy-1-hexynyl)-3-pyridyl)-7-azabicyclo[2.2.1]heptane], for which the Ki came to 0.215 nM in assay [1] (setting [8]); 0.166 nM in assay [2] (setting [9]); 0.146 nM in assay [3] (setting [10]); 0.352 nM in assay [4] (setting [11]); 266 nM in assay [5] (setting [12]); 15.4 nM in assay [6] (setting [13]). Further, in assay [7] (setting [14]), the affinity corresponds to a Ki of 45.1 nM.

For the compound `Clc1cc2c(cn1)C1C3CCC(N3)C1CC2` (centres unmarked) [Ligand 37a], the Ki in assay [1] (setting [8]) amounted to 339 nM; in assay [2] (setting [9]), 67.4 nM; in assay [2] (Table 3, mean ± SEM of 3 (nicotine, 1: 3 to 6) independent measurements, read-out: Ki α4β2) it was 73 nM; in assay [3] (setting [10]), 345 nM; in assay [3] (Table 3, mean ± SEM of 3 (nicotine, 1: 3 to 6) independent measurements, read-out: Ki α3β2) it was 354 nM; in assay [4] (setting [11]), 294 nM. The Ki came to 290 nM in assay [4] (Table 3, mean ± SEM of 3 (nicotine, 1: 3 to 6) independent measurements, read-out: Ki α2β2); 2170 nM in assay [5] (setting [12]); 2280 nM in assay [5] (Table 3, mean ± SEM of 3 (nicotine, 1: 3 to 6) independent measurements, read-out: Ki α3β4); 672 nM in assay [6] (setting [13]); 637 nM in assay [6] (Table 3, mean ± SEM of 3 (nicotine, 1: 3 to 6) independent measurements, read-out: Ki α4β4); 693 nM in assay [7] (setting [14]). In addition, in assay [7] (Table 3, mean ± SEM of 3 (nicotine, 1: 3 to 6) independent measurements, read-out: Ki α2β4), the Ki is 717 nM.

As for `Clc1ccc(C2CC3CC4(OCCO4)C2N3)cn1` (centres unmarked) [ZW-82], the Ki stood at 304 nM in assay [1] (setting [8]); 57.3 nM in assay [2] (setting [9]); 147 nM in assay [3] (setting [10]); 30 nM in assay [4] (setting [11]); 173 nM in assay [5] (setting [12]); 53.1 nM in assay [6] (setting [13]). The Ki in assay [7] (setting [14]) stood at 93.8 nM.

For `FCCCCC#Cc1cncc(OC[C@@H]2CCCN2)c1` [Ligand 42, 5-(6-Fluoro-1-hexynyl)-3-(2(S)-pyrrolidinylmethoxy)pyridine], the Ki in assay [1] (setting [8]) came to 3.45 nM; in assay [2] (setting [9]), 0.907 nM; in assay [3] (setting [10]) it was 5.27 nM; in assay [4] (setting [11]) it was 3.5 nM; in assay [5] (setting [12]) it was 7580 nM; in assay [6] (setting [13]) it was 721 nM. Moreover, the Ki in assay [7] (setting [14]) was 680 nM.

Turning to “Hexane-1,3-N,N′-bisepibatidine [Ligand 59c]”, the Ki came out at 14.2 nM in assay [1] (Table 5, *Rat forebrain, mainly α4β2, read-out: Ki α4β2*); 7.2 nM in assay [2] (Table 5, rat nAChR subtypes, read-out: Ki α4β2); 6.61 nM in assay [3] (Table 5, rat nAChR subtypes, read-out: Ki α3β2); 4.12 nM in assay [4] (Table 5, rat nAChR subtypes, read-out: Ki α2β2); 64.7 nM in assay [5] (Table 5, rat nAChR subtypes, read-out: Ki α3β4); 31.9 nM in assay [6] (Table 5, rat nAChR subtypes, read-out: Ki α4β4). For the same compound, the Ki in assay [7] (Table 5, rat nAChR subtypes, read-out: Ki α2β4) was 37.4 nM.

For `O=c1cccc2n1C[C@H]1C[C@@H]2CN(CCCCCN2C[C@@H]3C[C@H](C2)c2cccc(=O)n2C3)C1` [ZW-19], the inhibition constant (Ki) in assay [1] was 603 nM; in assay [2], 383 nM; in assay [3] it was over 1000 nM; in assay [4], 240 nM; in assay [5], over 10000 nM; in assay [6], 468 nM. In assay [7], this compound gave a Ki of 1430 nM.

As for `O=c1cccc2n1C[C@H]1C[C@@H]2CN(CCCN2C[C@@H]3C[C@H](C2)c2cccc(=O)n2C3)C1` [ZW-18], the Ki is 936 nM in assay [1]; 468 nM in assay [2]; over 1000 nM in assay [3]; 318 nM in assay [4]; over 10000 nM in assay [5]; 746 nM in assay [6]. The compound further returned a Ki in assay [7] of 3480 nM.
